Reference: PubChem BioAssay AID1919010 (Molecular Pharmacology Branch, DTP, NCI, 2023)
“And” between values parts separate entries of the source, which are not always exact repeats. Identical values can stand only once.

Tested on: Hs578T complex spheroid growth, percent test/control
Assay: Anticancer human tumor Hs578T cell line growth inhibition [AhR];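 further: luminescent viability signal as a proxy for spheroid growth; spheroids exposed to agents for one week after three days of growth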
Conditions: for viability, T/C: stronger effect = lower value
Text: Multicellular complex tumor spheroid response to aryl hydrocarbon receptor antagonists in combination with a variety of drugs and investigational agents in selected tumor cell lines
The current study was undertaken to assess response to aryl hydrocarbon receptor antagonists in combination with standard-of-care drugs and investigational agents in solid tumor complex spheroid models. Complex spheroids include a stromal component modeled by human endothelial cells (HUVEC) and fibroblasts modeled by human mesenchymal stem cells (MSCs). The concentration ranges selected for each drug and investigational agent were based upon clinically achievable concentrations if the clinical Cmax of the agent was known.
Compounds. The drugs and investigational agents: BAY 2416964 (NSC825713), GNF351 (NSC835774), CH-223191 (NSC835775), CPI-455 (NSC825282), aza-TdCyd (NSC777586), decitabine (NSC127716), belinostat (NSC758774), entinostat (NSC756642), pevonedistat (NSC761192), tazemetostat (NSC777109), talazoparib (NSC765396), olaparib (NSC753686), selinexor (NSC780203), nedisertib (M3814, NSC802822), bortezomib (NSC756655), venetoclax (NSC766270), doxorubicin (NSC123127), elimusertib (BAY189344, NSC800525), ceralasertib (AZD6738, NSC777638), TAK-243 (NSC785004), alisertib (NSC759677), etoposide (NSC141540), topotecan (NSC609699), eribulin (NSC707389), gemcitabine (NSC613327), carboplatin (NSC241240), cisplatin (NSC119875), and SN-38 (NSC673596) were obtained from the National Cancer Institute (NCI) Developmental Therapeutics Program Chemical Repository (32). The FDA-approved anticancer drug set is available from the Developmental Therapeutics Program at https://dtp.cancer.gov/organization/dscb/obtaining/available plates.htm. […] The stock solutions were prepared in dimethyl sulfoxide (DMSO, Sigma-Aldrich, St. Louis, MO, cat. D2650), except for the platinum compounds which were prepared in saline (Quality Biological, Gaithersburg, MD, cat. 114-055-101), at 800-fold the tested concentration and stored at -70 degrees C prior to their use. All drugs and investigational agents were tested over a range starting from a high concentration at or near the clinical Cmax and decreasing in half-log increments. If the clinical Cmax for an agent had not been determined, the highest concentration tested was 10 microM (Table 1).
Cell Culture. All cells were maintained in an incubator at 37 degrees C and 5% CO2 with 95% humidity. The PDC lines were cultured according to standard operating procedures established by the NCI PDMR (https://pdmr.cancer.gov). Briefly, all PDCs were thawed and cultured in Matrigel-coated flasks prepared with a working solution of 1X Ham's F-12 nutrient mix, without supplementation (Invitrogen, Waltham, MA, cat. 11765054), 100 U/mL penicillin-streptomycin (Invitrogen, cat. 15140122), and 2.5% Matrigel (Corning Inc., Corning, NY, cat. 354248) for the first three passages. All PDCs were cultured in complete DMEM/F-12 media containing advanced DMEM/F-12 (Invitrogen, cat. 12634028), 4.9% defined fetal bovine serum, heat inactivated (HyClone Laboratories Inc., Logan, UT, cat. SH30070.03HI), 389 ng/mL hydrocortisone (Sigma-Aldrich, cat. H4001), 9.7 ng/mL human EGF recombinant protein (Invitrogen, cat. PHG0313), 23.4 microg/mL adenine (Sigma-Aldrich, cat. A2786), 97.3 U/mL penicillin-streptomycin (Invitrogen, cat. 15140122), 1.9 mM L-glutamine (Invitrogen, cat. 25030081), and 9.7 microM Y-27632 dihydrochloride (Tocris Bioscience, Bristol, United Kingdom, cat. 1254). The PDCs were cultured in complete DMEM/F12 media without 10 microM Y-27632 dihydrochloride for at least two passages prior to the screen. The established cell lines NCI-H1341 and […] were cultured in DMEM/F-12, HEPES (Invitrogen, cat. 11330032), 5% defined fetal bovine serum (HyClone Laboratories Inc., cat. SH30070.03), ITS premix universal culture supplement [insulin (5 microg/mL), transferrin (5 microg/mL), and selenious acid (5 ng/mL)] […]

SMILES: CC(C)CC(NC(=O)C(Cc1ccccc1)NC(=O)c1cnccn1)B(O)O (stereo not given)
- viability, T/C (compound 0.000949 µM): 105% and 102% and 101%
- viability, T/C (compound 0.003 µM): 94% and 86.9% and 73.4%
- viability, T/C (compound 0.00949 µM): 29.3% and 16.7% and 7.03%
- viability, T/C (compound 0.03 µM): 0.41% and 0.42% and 0.68%
- viability, T/C (compound 0.0949 µM): 0.27% and 0.44% and 1.61%
- viability, T/C (compound 0.3 µM): 0.58% and 0.42% and 0.53%
- IC50 (curve of compound): 6.56 nM and 5.49 nM and 4.5 nM

SMILES: CC(C)c1c(-c2ccccc2)nc2c(C#N)c[nH]n2c1=O
- viability, T/C (compound 0.0316 µM): 103% and 106% and 97.8%
- viability, T/C (compound 0.1 µM): 106% and 114% and 105%
- viability, T/C (compound 0.316 µM): 102% and 101% and 106%
- viability, T/C (compound 1 µM): 113% and 101% and 100%
- viability, T/C (compound 3.16 µM): 102% and 116% and 98.1%
- viability, T/C (compound 10 µM): 101% and 115% and 93.1%
- IC50 (curve of compound): > 10000 nM

SMILES: CC(CO)NC(=O)c1cc(-c2ccc(Cl)cc2)nn(-c2cnn(C)c2)c1=O (stereo not given)
- viability, T/C (compound 0.316 µM): 116% [middle of 21 runs]
- viability, T/C (compound 1 µM): 109% [middle of 20 runs]
- IC50 (compound alone, run of 08/08/2022): > 10000 nM

SMILES: CC1(C)CCC(CN2CCN(c3ccc(C(=O)NS(=O)(=O)c4ccc(NCC5CCOCC5)c([N+](=O)[O-])c4)c(Oc4cnc5[nH]ccc5c4)c3)CC2)=C(c2ccc(Cl)cc2)C1
- viability, T/C (compound 0.0316 µM): 103% and 111% and 99.9%
- viability, T/C (compound 0.1 µM): 110% and 109% and 97.8%
- viability, T/C (compound 0.316 µM): 112% and 104% and 99.2%
- viability, T/C (compound 1 µM): 91% and 103% and 92.9%
- viability, T/C (compound 3.16 µM): 101% and 97.7% and 82.6%
- viability, T/C (compound 10 µM): 84% and 62.3% and 78.2%
- IC50 (curve of compound): > 10000 nM

SMILES: CC1COCCN1c1cc(-c2ccnn2C)c2ccnc(-c3ccn[nH]3)c2n1 (stereo not given)
- viability, T/C (compound 0.00316 µM): 109% and 104% and 102%
- viability, T/C (compound 0.01 µM): 105% and 104% and 114%
- viability, T/C (compound 0.0316 µM): 97.8% and 102% and 95.5%
- viability, T/C (compound 0.1 µM): 78.7% and 81.3% and 77.2%
- viability, T/C (compound 0.316 µM): 60.4% and 51% and 48.1%
- viability, T/C (compound 1 µM): 44.3% and 36.2% and 37.9%
- IC50 (curve of compound): 658 nM and 326 nM and 298 nM

SMILES: CC1COCCN1c1cc(C2(S(C)(=N)=O)CC2)nc(-c2ccnc3[nH]ccc23)n1 (stereo not given)
- viability, T/C (compound 0.0316 µM): 105% and 94.7% and 106%
- viability, T/C (compound 0.1 µM): 108% and 91.7% and 112%
- viability, T/C (compound 0.316 µM): 119% and 99.9% and 103%
- viability, T/C (compound 1 µM): 105% and 89.6% and 108%
- viability, T/C (compound 3.16 µM): 104% and 76.3% and 81.6%
- viability, T/C (compound 10 µM): 60.3% and 48.3% and 55.5%
- IC50 (curve of compound): > 10000 nM and 9320 nM

SMILES: CCN(c1cc(-c2ccc(CN3CCOCC3)cc2)cc(C(=O)NCc2c(C)cc(C)[nH]c2=O)c1C)C1CCOCC1
- viability, T/C (compound 0.00949 µM): 103% and 101% and 104%
- viability, T/C (compound 0.03 µM): 105% and 99% and 108%
- viability, T/C (compound 0.0949 µM): 109% and 101% and 95.7%
- viability, T/C (compound 0.3 µM): 91.3% and 103% and 98.4%
- viability, T/C (compound 0.949 µM): 100% and 97.4% and 94.9%
- viability, T/C (compound 3 µM): 95.2% and 97.7% and 99.6%
- IC50 (curve of compound): > 3000 nM

SMILES: CC[C@@]1(O)C(=O)OCc2c1cc1n(c2=O)Cc2cc3c(CN(C)C)c(O)ccc3nc2-1
- viability, T/C (compound 0.000316 µM): 94.7% and 97.6% and 107%
- viability, T/C (compound 0.001 µM): 106% and 98.2% and 103%
- viability, T/C (compound 0.00316 µM): 105% and 90.3% and 95.3%
- viability, T/C (compound 0.01 µM): 96.5% and 72.5% and 96.3%
- viability, T/C (compound 0.0316 µM): 76.8% and 64.2% and 77.9%
- viability, T/C (compound 0.1 µM): 69.3% and 71.8% and 68.2%
- IC50 (curve of compound): > 100 nM

SMILES: CCc1c2c(nc3ccc(O)cc13)-c1cc3c(c(=O)n1C2)COC(=O)[C@]3(O)CC
- viability, T/C (compound 0.000949 µM): 83.3% and 77.6% and 78.6%
- viability, T/C (compound 0.003 µM): 70.5% and 82.2% and 73.2%
- viability, T/C (compound 0.00949 µM): 74% and 64.3% and 76.1%
- viability, T/C (compound 0.03 µM): 64.6% and 63.2% and 75%
- viability, T/C (compound 0.0949 µM): 62.3% and 56.5% and 61.9%
- viability, T/C (compound 0.3 µM): 47.1% and 38.3% and 43.4%
- IC50 (curve of compound): 253 nM and 124 nM and 206 nM

SMILES: COc1cc(C2c3cc4c(cc3C(OC3OC5COC(C)OC5C(O)C3O)C3COC(=O)C23)OCO4)cc(OC)c1O (stereo not given)
- viability, T/C (compound 0.0316 µM): 85.4% and 94.6% and 92.8%
- viability, T/C (compound 0.1 µM): 99.7% and 91.7% and 91.5%
- viability, T/C (compound 0.316 µM): 84.1% and 88.8% and 79.9%
- viability, T/C (compound 1 µM): 66.8% and 82.6% and 69.9%
- viability, T/C (compound 3.16 µM): 69.5% and 79.7% and 71.9%
- viability, T/C (compound 10 µM): 58.1% and 56.4% and 57.1%
- IC50 (curve of compound): > 10000 nM

SMILES: COc1cc(Nc2ncc3c(n2)-c2ccc(Cl)cc2C(c2c(F)cccc2OC)=NC3)ccc1C(=O)O
- viability, T/C (compound 0.0316 µM): 78.2% and 84.4% and 89.2%
- viability, T/C (compound 0.1 µM): 92.6% and 82.2% and 94%
- viability, T/C (compound 0.316 µM): 97% and 80.2% and 85.2%
- viability, T/C (compound 1 µM): 96.8% and 87% and 87.8%
- viability, T/C (compound 3.16 µM): 89.2% and 70.9% and 81%
- viability, T/C (compound 10 µM): 47.3% and 34.7% and 44.9%
- IC50 (curve of compound): 9280 nM and 6150 nM and 8470 nM

SMILES: COc1ccc([C@@H](O)c2cc(-c3ncnc4cc(N5CCOCC5)ccc34)c(F)cc2Cl)nn1
- viability, T/C (compound 0.0316 µM): 98.8% and 109% and 95.3%
- viability, T/C (compound 0.1 µM): 106% and 104% and 89.5%
- viability, T/C (compound 0.316 µM): 90.8% and 87.6% and 99.6%
- viability, T/C (compound 1 µM): 90.1% and 71.2% and 78.9%
- viability, T/C (compound 3.16 µM): 57.8% and 44.8% and 53.4%
- viability, T/C (compound 10 µM): 35.3% and 31.1% and 33.9%
- IC50 (curve of compound): 4830 nM and 2640 nM and 3670 nM
